Data from patent US7560591B2, “Benzamidine derivatives having anti-inflammatory and immunosuppressive activity” (Rotta Research Laboratorium S.p.A., priority 2001, dated 2009).

Key:
plasma TNFα = experiment: Plasma TNFα concentration in rats after stimulation with LPS (endotoxic shock); format: in vivo, rat; details: for TNFα (ng/ml ± SD): plasma 90 minutes after challenge
Procedure: c) The immunosuppressive activity of Compound I-4 was evaluated in an in vivo test in the rat, in which a lipopolysaccharide (LPS) of bacterial origin, injected i.p. at a dose of 6 mg/kg, induced a shock characterised by urgent diarrhoea accompanied by a large increase in the plasma TNFα concentration.
Blood was taken from the animals which were killed 90 minutes after the challenge and the concentration of TNFα in the plasma was determined by Elisa (Amersham Kit cod. RPN2734).

[1] = system: neutral proteases (metalloproteases); experiment: Inhibition of neutral proteases (metalloproteases) in supernatant of IL-1β-stimulated rabbit joint chondrocytes, azocoll substrate; format: biochemical; details: IL-1β 1 ng/ml, 48 hours, APMA-activated supernatant, read-out: MP (metalloproteases) IC50
Procedure: (§1) a) The activity in inhibiting the formation of NO, measured as NO2^− (nitrites), PGE2, and neutral protease, was investigated in vitro on culture broths of rabbit joint chondrocytes stimulated by cytokine IL-1β (1 ng/ml) for 48 hours. For the preparation of the chondrocytes, the method described by Berenbaum et al [FEBS Letters 340, 51-55 (1994)] was followed. Briefly, fragments of cartilage removed under sterile conditions from the heads of rabbit shoulder, hip and knee joints were chopped finely and digested at 37° C. by hyaluronidase, trypsin and collagenase solutions, giving rise, after filtration on sterile gauze and centrifuging at 600×g and suitable dilution with 10% DMEM-FCS, to a concentration of approximately 1×10^5 cells per well. The cells were kept in these conditions until confluence (about 15 days), the broth being changed every 3 days. At this point, the products under test, dissolved in the medium, were added to each test sample and, after 20 minutes, 350 μl IL-1β was added in order to have a final concentration of 1 ng/ml. The duration of the stimulation was 48 hours at 37° C. (incubation air-CO2 7%). Measurement of the nitrites, as described by Green et al. [Anal. Biochem. 126, 131-138 (1982)], and of the PGE2s by RIA measurement, was then performed on the cell supernatant fluid. The measurement of the neutral proteases was performed in the cell supernatant fluid containing the p-aminophenyl mercury acetate (APMA) activator with the use of azocoll as the substrate and with incubation at 37° C. for 17 h as described by Chavira et al. [Anal. Biochem. 136, 446-450 (1984)]. In order to evaluate the direct inhibitory effect of the compounds under test on the hydrolytic activity of the cell supernatant fluid, they were added to the supernatant fluid containing the proteases induced by IL-1β and already activated by AMPA.
(§2) The results obtained are shown in Table 3, in which the IC50, that is, the concentration (micromolar) of antagonist which can inhibit the formation of nitrites, PGE2s, and neutral proteases, respectively, by 50% relative to the control group, that is, to the cells stimulated with IL-1β but without the addition of antagonists, is given for some of the compounds of the invention already given by way of example in Table 2.

[2] = system: formation of NO, measured as NO2− (nitrites); experiment: Inhibition of NO (nitrite) formation in rabbit joint chondrocytes stimulated by IL-1β; format: cell-based; details: Oryctolagus cuniculus, Chondrocyte, IL-1β 1 ng/ml, 48 hours, NO determined as nitrites
Procedure: as §1, §2

[3] = system: colitis induced by TNBS in rats; experiment: Colitis induced by TNBS in rats; format: in vivo, rat; details: for Weight of the colon: 48 hours after TNBS; for Weight of the colon / Myeloperoxidase activity / iNOS activity / Macroscopic damage (MDS): mean ± SD; for Myeloperoxidase activity / iNOS activity: colon tissue; for Macroscopic damage (MDS): score 0-10
Excerpt: The combined capability of some of the compounds of the invention to inhibit both iNOS and the synthesis of TNFα has led to their activity being checked in an experimental model of colitis caused by a chemical hapten, trinitrobenzene-sulphonic acid (TNBS), which can bind to the tissue proteins and stimulate cell-mediated immunity. The intrarectal administration of TNBS in association with ethanol causes acute inflammation characterised by extensive ulceration and necrosis.
A distal colitis was therefore induced in the rat by intrarectal instillation of TNBS (40 mg/kg) dissolved in 50% ethanol (0.5 ml/rat). The drugs were administered orally twice a day on days −2; −1; 0; +1 and the animals were killed 48 hours after the administration of TNBS.
The parameters examined were: total weight of the colon (g), macroscopic tissue damage “score”, measurement of the tissue myeloperoxidase (MPO) activity, which is a marker of the infiltration of the neutrophiles, and measurement of the iNOS activity (pmoles/g tissue/min.).
The macroscopic score (MDS) was taken on about 10 cm of colon in accordance with the following arbitrary scale:
The tissue MPO measurement was performed according to Velgara et al., JPET 1994. The measurement of the tissue nitrites was performed by applying the method described above for the chondrocytes to the supernatant fluid of the tissue homogenate.
Compound I-4, administered in doses of 5, 10 and 20 mg/kg, and compound I-11 were examined, by administering them orally, in comparison with sulphasalazine (250 mg/kg) and 5-aminosalicylic acid (5-ASA) (100 mg/kg), 2 drugs which are widely used in the treatment of ulcerative colitis.

formation of PGE2 = experiment: Inhibition of PGE2 formation in rabbit joint chondrocytes stimulated by IL-1β (RIA); format: cell-based; details: Oryctolagus cuniculus, Chondrocyte, IL-1β 1 ng/ml, 48 hours
Procedure: as §1, §2

[4] = 50 μg/kg ICV + LPS 6 mg/kg I.P.

CCCCCNC(=S)Nc1ccc(NC(C)=N)cc1 [Compound I-4, N-[4-(N-acetamidine)phenyl]-N′-pentyl Thiourea]
Inhibition (%) of plasma TNFα (plasma TNFα; [4]): 96.2% | TNFα (ng/ml ± SD) (plasma TNFα; [4]): 2.3 ± 1.2 ng/mL | TNFα (ng/ml ± SD) (plasma TNFα; 10 mg/kg IV + LPS 6 mg/kg I.P.): 12.9 ± 7.2 ng/mL | TNFα (ng/ml ± SD) (plasma TNFα; 20 mg/kg OS + LPS 6 mg/kg I.P.): 30.6 ± 1.0 ng/mL | inhibition at 10 mg/kg (plasma TNFα; Rattus norvegicus, 10 mg/kg IV + LPS 6 mg/kg I.P.): 78.9% | IC50 [1]: 6.6 µM | IC50 [2]: 6.6 µM | Weight of the colon ([3]; 5 mg/kg orally twice a day): 2.2 ± 0.2 g | Myeloperoxidase activity ([3]; 5 mg/kg orally twice a day): 5.5 ± 1.4 UMPO/g/min | iNOS activity ([3]; 5 mg/kg orally twice a day): 131.7 ± 91.9 pmol/g/min | Macroscopic damage (MDS) ([3]; 5 mg/kg orally twice a day): 5.0 ± 0.9 | Weight of the colon ([3]; 10 mg/kg orally twice a day): 2.1 ± 0.3 g | Myeloperoxidase activity ([3]; 10 mg/kg orally twice a day): 5.0 ± 1.7(*) UMPO/g/min | iNOS activity ([3]; 10 mg/kg orally twice a day): 98.6 ± 60.0 pmol/g/min | Macroscopic damage (MDS) ([3]; 10 mg/kg orally twice a day): 4.4 ± 0.8(*) | Weight of the colon ([3]; 20 mg/kg orally twice a day): 2.0 ± 0.2 g | Myeloperoxidase activity ([3]; 20 mg/kg orally twice a day): 5.1 ± 1.2(*) UMPO/g/min | iNOS activity ([3]; 20 mg/kg orally twice a day): 61.5 ± 31.4 pmol/g/min | Macroscopic damage (MDS) ([3]; 20 mg/kg orally twice a day): 3.5 ± 0.8(*) | reduction of macroscopic damage ([3]; doses of 10 and 20 mg/kg): about 50% | reduction of the increase in iNOS activity induced by TNBS ([3]; doses of 10 and 20 mg/kg): 50% | reduction of the increase in tissue MPO activity induced by TNBS ([3]; doses of 10 and 20 mg/kg): 40% | melting point: 190.7 to 191.4 °C | IC50 (formation of PGE2): 3.3 µM
